According to US11358947B2, “Substituted 2-acylamino-cycloalkylthiophene-3-carboxylic acid arylamides as inhibitors of calcium-activated chloride channel TMEM16A” (THE REGENTS OF THE UNIVERSITY OF CALIFORNIA, priority 2017, dated 2022):
“Also recorded” adds a separate entry of the source.

What was measured:
TMEM16B = molecular target: T1, TMEM16B (Homo sapiens, UniProt Q9NQ90); assay: TMEM16B fluorescence plate reader assay in FRT cells; type: cell-based
T1 construct: expressed in transfected cells; host or cells: Fischer Rat Thyroid (FRT) cells co-expressing YFP
T1 sequence (Q9NQ90 1-998): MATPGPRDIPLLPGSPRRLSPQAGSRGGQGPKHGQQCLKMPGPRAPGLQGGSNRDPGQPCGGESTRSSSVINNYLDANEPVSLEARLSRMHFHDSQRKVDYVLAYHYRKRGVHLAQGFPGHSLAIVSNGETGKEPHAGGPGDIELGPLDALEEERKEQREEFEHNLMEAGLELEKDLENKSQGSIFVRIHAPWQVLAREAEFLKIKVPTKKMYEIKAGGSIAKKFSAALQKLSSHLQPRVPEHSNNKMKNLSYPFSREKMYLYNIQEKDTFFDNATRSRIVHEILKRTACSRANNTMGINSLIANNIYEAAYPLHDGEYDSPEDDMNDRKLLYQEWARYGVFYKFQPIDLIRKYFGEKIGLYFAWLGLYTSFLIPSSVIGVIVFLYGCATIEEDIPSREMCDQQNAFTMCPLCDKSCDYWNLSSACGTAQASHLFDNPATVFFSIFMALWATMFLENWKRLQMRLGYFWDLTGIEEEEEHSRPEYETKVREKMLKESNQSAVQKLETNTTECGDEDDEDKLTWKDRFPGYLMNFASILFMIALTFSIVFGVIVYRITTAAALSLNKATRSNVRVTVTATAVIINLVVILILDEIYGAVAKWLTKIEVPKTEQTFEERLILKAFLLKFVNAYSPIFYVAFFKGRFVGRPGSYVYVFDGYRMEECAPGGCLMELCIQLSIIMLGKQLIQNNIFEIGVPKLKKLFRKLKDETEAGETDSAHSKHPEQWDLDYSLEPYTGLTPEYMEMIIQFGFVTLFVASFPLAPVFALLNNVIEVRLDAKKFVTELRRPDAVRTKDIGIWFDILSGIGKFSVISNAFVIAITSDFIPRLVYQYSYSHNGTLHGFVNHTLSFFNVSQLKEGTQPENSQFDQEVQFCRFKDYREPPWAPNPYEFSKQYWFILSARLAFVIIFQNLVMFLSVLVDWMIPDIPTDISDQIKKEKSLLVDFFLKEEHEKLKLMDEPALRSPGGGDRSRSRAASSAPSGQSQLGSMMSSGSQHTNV
Description: (§1) Concentration-dependent inhibition of TMEM16A measured by short-circuit current assay; TMEM16B and non-TMEM16 anion conductance measured using a fluorescence plate reader assay using FRT and HT-29 cells respectively; cell viability measured in FRT null cells.
(§2) We further assayed the compound potency on endogenous non-TMEM16A. Ca^2+-activated Cl^− channel in HT-29 cells.
TMEM16A functional assay. TMEM16A functional plate-reader assay was done as previously described. […] Test compounds (0.5 μl in DMSO) were added to each well at specified concentration. […] The initial rate of I− influx following each of the solution additions was computed from fluorescence data by nonlinear regression. TMEM16B activity was assayed similarly as described using FRT cells co-expressing YFP and TMEM16B.

[1] = system: non-TMEM16A Ca2+-activated Cl- channel in HT-29 cells; assay: Non-TMEM16A CaCC plate reader assay in HT-29 cells expressing YFP; type: cell-based; settings: Homo sapiens, non-TMEM16 anion conductance, fluorescence plate reader assay
Description: as §1, §2
Plate reader assays of chloride channel function, CFTR inhibition was assayed as described. […] Activity of non-TMEM16A CaCC was assayed as described in HT-29 cells expressing YFP.

[2] = In vitro metabolic stability with rat liver microsomes and NADPH; type: in vitro ADME
Description: (3B) LC/MS traces showing total ion counts as a function of incubation time.
These compounds were incubated with rat liver microsomes and NADPH, and non-metabolized compounds were quantified by ESI-LCMS. […] It is speculated that Ani-9 could be oxidized at the aryl methyl or N—N bond; or hydrolyzed at the amide or hydrazone linkages.
Compounds (each 10 uM) were incubated for specific time points (2, 5, 15, 30, 60, 180 min) with shaking at 37° C. with rat liver microsomes (1 mg protein/mL, Sigma-Aldrich, St. Louis, Mo.) in potassium phosphate butler (100 mM) containing 1 mM NADPH. The mixture was then chilled on ice, and 0.5 mL of ice-cold ethyl acetate was added. Samples were centrifuged for 15 min at 3000 RPM. The supernatant was evaporated to dryness, and the residue was dissolved in 80 μL of mobile phase (acetonitrile:/water, 3:1, containing 0.1% formic acid) for LC/MS. Reverse-phase HPLC separation was carried out using a Waters C18 column (2.1 mm×100 mm, […]) equipped with a solvent delivery system (Waters model 2690, Milford, Mass.).

mouse ileum = assay: Ex vivo intestinal contractility of mouse ileum; settings: increasing concentrations added to bath
Description: The effect of a compound according to one embodiment on intestinal contractility was determined in an ex vivo preparation of mouse ileum. Adult mice (CD1 genetic background) were euthanized by avertin overdose (200 mg/kg, 2,2,2-tribromethanol, Sigma-Aldrich) and ileal segments of ˜2 cm length were isolated and washed with Krebs-Henseleit buffer (pH 7.4, in mM: 118 NaCl, 4.7 KCl, 1.2 MgSO4, 1.2 KH2PO4, 25 NaHCO3, 2.5 CaCl2, 11 D-glucose). […] Tissues were stabilized for 60 min with resting tension of 0.5 g and solutions were changed every 15 min.

[3] = Pharmacokinetics in rats, serum concentration after IP or oral dosing; type: in vivo; settings: rat
Description: The pharmacokinetics of compounds according to certain embodiments was studied in rats. […] After treatments blood samples were collected by tail vein puncture at specified time points (15, 30, 60, 120 and 180 min). Serum was separated by centrifuging blood samples at 5000 rpm for 15 min. […] The aliquot was then diluted to a total of 2 mL in PBS. A C18 solid-phase extraction (SPE) column (Thermo Fisher, Waltham, Mass.) was conditioned with methanol (2 mL) and PBS (2 mL). The aliquot was loaded onto the conditioned SPE column, and washed with PBS (2 mL) followed by water (2 mL), and the column then dried under vacuum for 5 min. Analytes were eluted with ethyl acetate (3 mL), and concentrated by rotary evaporation. The residues were reconstituted into methanol (150 μL), and then analyzed using a hybrid quadrupole Q-Exactive Orbitrap mass analyzer (Thermo Fisher, Waltham, Mass.), with an electrospray ionization source, employing parallel-reaction monitoring (PRM) to provide high analytical sensitivity.

[4] = system: rat made hypertensive with phenylephrine; assay: Blood pressure in anesthetized rat made hypertensive with phenylephrine; type: in vivo; settings: phenylephrine 0.25 mg IV, then 0.3 mg compound IV, femoral artery catheter
Description: TMEM16A is expressed in vascular smooth muscle and its inhibition may reduce blood pressure. […] Blood pressure was measured by femoral artery catheter.

Compound	IC50 (TMEM16B) [nM]	IC50 [1] [nM]	Compound remaining ([2]; rat liver microsomes + NADPH, 10 uM, 180 min) [%]	Metabolic stability compared to Ani-9 (in words) ([2]; time course of compound degradation, rat liver microsomes)	Effect on spontaneous isometric contractions of ileum (mouse ileum)	Toxic effect (in words) ([3]; 4 mg/kg IP or oral)	Serum concentration ([3]; 4 mg/kg intraperitoneal, for up to 2 h)	Peak serum concentration ([3]; 4 mg/kg intraperitoneal, peak at 60 min) [µM]	Serum concentration ([3]; 4 mg/kg oral, for 3 h)	Peak serum concentration ([3]; 4 mg/kg oral, peak at 2 h) [µM]	Detectability in serum (in words) ([3]; after intraperitoneal (IP) or oral administration (PO))	Effect on blood pressure [4]
Cc1ccccc1NC(=O)c1c(NC(=O)C(F)(F)F)sc2c1CCCCC2 [Compound 6aa, 2-(2,2,2-Trifluoro-acetylamino)-5,6,7,8-tetrahydro-4H-cyclohepta[b]thiophene-3-carboxylic acid o-tolylamide]	1400	4000										
Cc1ccccc1NC(=O)c1c(NC(=O)C(F)(F)Br)sc2c1CCCCC2 [Compound 6bm, 2-(2-Bromo-2,2-difluoro-acetylamino)-5,6,7,8-tetrahydro-4H-cyclohepta[b]thiophene-3-carboxylic acid o-tolylamide]			~30	remarkably greater stability	strongly inhibited; also recorded: suppression of isometric smooth muscle contractions	No toxic effect was seen	greater than 3.5 μM	6.5	greater than 0.5 μM	1.9	detectable at pharmacologically relevant concentrations	acute reduction in blood pressure
